# Reference: patent publication US10208019B2, “GLP-1 receptor agonists and uses thereof” (Pfizer Inc., priority 2016, dated 2019)
# Like-named read-outs stand apart in the source and are kept apart here.
# What was measured:
# human GLP-1R [1] = target: human GLP-1R (Homo sapiens (Human), UniProt P43220, L260F); test: CHO GLP-1R Clone C6—Assay 2: HTRF cAMP cell-based functional agonist assay (low GLP-1R density); settings: for EC50: CHO GLP-1R Clone C6, cAMP HTRF, geometric mean; for Emax: CHO GLP-1R Clone C6, relative to saturating concentration of full agonist GLP-1 (1 μM), arithmetic mean, read-out: Assay 2 Emax (%)
# Description: GLP-1R-mediated agonist activity was determined with a cell-based functional assay utilizing an HTRF (Homogeneous Time-Resolved Fluorescence) cAMP detection kit (cAMP HI Range Assay Kit; Cis Bio cat #62AM6PEJ) that measures cAMP levels in the cell. The method is a competitive immunoassay between native cAMP produced by the cells and exogenous cAMP labeled with the dye d2. The tracer binding is visualized by a mAb anti-cAMP labeled with Cryptate. The specific signal (i.e. energy transfer) is inversely proportional to the concentration of cAMP in either a standard or an experimental sample.
# The human GLP-1R coding sequence (NCBI Reference Sequence NP_002053.3, including naturally-occurring variant Leu260Phe) was subcloned into pcDNA5-FRT-TO and a clonal CHO cell line stably expressing a low receptor density was isolated using the Flp-In™ T-Rex™ System, as described by the manufacturer (ThermoFisher).
# Cells were removed from cryopreservation, re-suspended in 40 mL of Dulbecco's Phosphate Buffered Saline (DPBS-Lonza Cat #17-512Q) and centrifuged at 800×g for 5 min at 22° C. The DPBS was aspirated, and the cell pellet was re-suspended in 10 mL of complete growth medium (DMEM:F12 1:1 Mixture with HEPES, L-Gln, 500 mL (DMEM/F12 Lonza Cat #12-719F), 10% heat inactivated fetal bovine serum (Gibco Cat #16140-071), 5 mL of 100× Pen-Strep (Gibco Cat #15140-122), 5 mL of 100× L-Glutamine (Gibco Cat #25030-081), 700 μg/mL Hygromycin (Invitrogen Cat #10687010) and 15 μg/mL Blasticidin (Gibco Cat #R21001). A 1 mL sample of the cell suspension in growth media was counted on a Becton Dickinson ViCell to determine cell viability and cell count per mL. The remaining cell suspension was then adjusted with growth media to deliver 1600 viable cells per well using a Matrix Combi Multidrop reagent dispenser, and the cells were dispensed into a white 384 well tissue culture treated assay plate (Corning 3570). The assay plate was then incubated for 48 h at 37° C. in a humidified environment (95% O2, 5% CO2)
# Varying concentrations of each compound to be tested (in DMSO) were diluted in assay buffer [HBSS with Calcium/Magnesium (Lonza/BioWhittaker cat #10-527F)/0.1% BSA (Sigma Aldrich cat #A7409-1L)/20 mM HEPES (Lonza/BioWhittaker cat #17-737E)] containing 100 μM 3-isobutyl-1-methylxanthin (IBMX; Sigma cat #15879). The final DMSO concentration in the compound/assay buffer mixture is 1%.
# After 48 h, the growth media was removed from the assay plate wells, and the cells were treated with 20 μL of the serially diluted compound in assay buffer for 30 min at 37° C. in a humidified environment (95% O2, 5% CO2). Following the 30 min incubation, 10 μL of labeled d2 cAMP and 10 μL of anti-cAMP antibody (both diluted 1:20 in cell lysis buffer; as described in the manufacturer's assay protocol) were added to each well of the assay plate. The plates were then incubated at room temperature and after 60 minutes, changes in the HTRF signal were read with an Envision 2104 multi-label plate reader using excitation of 330 nm and emissions of 615 and 665 nm. Raw data were converted to nM cAMP by interpolation from a cAMP standard curve (as described in the manufacturer's assay protocol) and the percent effect was determined relative to a saturating concentration of the full agonist GLP-1 (1 μM) included on each plate. EC50 determinations were made from agonist dose response curves analyzed with a curve fitting program using a 4-parameter logistic dose response equation.
# human GLP-1R [2] = target: human GLP-1R (Homo sapiens, UniProt P43220, G168S); test: CHO GLP-1R Clone H6—Assay 1: HTRF cAMP cell-based functional agonist assay (high GLP-1R density); settings: for EC50: CHO GLP-1R Clone H6, cAMP HTRF, geometric mean; for Emax: read-out: Assay 1 Emax (%), CHO GLP-1R Clone H6, relative to saturating concentration of full agonist GLP-1 (1 μM), arithmetic mean
# human GLP-1R (Homo sapiens, UniProt P43220, G168S), sequence (P43220 24-463 G168S limits assumed): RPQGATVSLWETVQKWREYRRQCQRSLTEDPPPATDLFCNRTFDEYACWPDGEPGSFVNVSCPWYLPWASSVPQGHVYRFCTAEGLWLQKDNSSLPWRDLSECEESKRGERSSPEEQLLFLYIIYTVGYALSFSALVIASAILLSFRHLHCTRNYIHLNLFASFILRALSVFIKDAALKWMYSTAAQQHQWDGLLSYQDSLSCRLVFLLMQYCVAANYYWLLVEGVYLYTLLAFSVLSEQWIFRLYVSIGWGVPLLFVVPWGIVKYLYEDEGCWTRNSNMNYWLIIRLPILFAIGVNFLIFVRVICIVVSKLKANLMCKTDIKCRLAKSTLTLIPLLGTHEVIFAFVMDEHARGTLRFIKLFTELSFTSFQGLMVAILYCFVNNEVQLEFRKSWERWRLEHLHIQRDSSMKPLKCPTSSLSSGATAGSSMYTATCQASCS
# Description: GLP-1R-mediated agonist activity was determined with a cell-based functional assay utilizing an HTRF (Homogeneous Time-Resolved Fluorescence) cAMP detection kit (cAMP HI Range Assay Kit; CisBio cat #62AM6PEJ) that measures cAMP levels in the cell. The method is a competitive immunoassay between native cAMP produced by the cells and exogenous cAMP labeled with the dye d2. The tracer binding is visualized by a mAb anti-cAMP labeled with Cryptate. The specific signal (i.e. energy transfer) is inversely proportional to the concentration of cAMP in either standard or experimental sample.
# The human GLP-1R coding sequence (NCBI Reference Sequence NP_002053.3, including naturally-occurring variant Gly168Ser) was subcloned into pcDNA3 (Invitrogen) and a cell line stably expressing the receptor was isolated (designated Clone H6).
# Cells were removed from cryopreservation, re-suspended in 40 mL of Dulbecco's Phosphate Buffered Saline (DPBS-Lonza Cat #17-512Q) and centrifuged at 800×g for 5 min at 22° C. The cell pellet was then re-suspended in 10 mL of growth medium [DMEM/F12 1:1 Mixture with HEPES, L-Gln, 500 mL (DMEM/F12 Lonza Cat #12-719F), 10% heat inactivated fetal bovine serum (Gibco Cat #16140-071), 5 mL of 100× Pen-Strep (Gibco Cat #15140-122), 5 mL of 100× L-Glutamine (Gibco Cat #25030-081) and 500 μg/mL Geneticin (G418) (Invitrogen #10131035)]. A 1 mL sample of the cell suspension in growth media was counted on a Becton Dickinson ViCell to determine cell viability and cell count per mL. The remaining cell suspension was then adjusted with growth media to deliver 2000 viable cells per well using a Matrix Combi Multidrop reagent dispenser, and the cells were dispensed into a white 384 well tissue culture treated assay plate (Corning 3570). The assay plate was then incubated for 48 hours at 37° C. in a humidified environment in 5% carbon dioxide.
# Varying concentrations of each compound to be tested (in DMSO) were diluted in assay buffer (HBSS with Calcium/Magnesium (Lonza/BioWhittaker cat #10-527F)/0.1% BSA (Sigma Aldrich cat #A7409-1L)/20 mM HEPES (Lonza/BioWhiftaker cat #17-737E) containing 100 μM 3-isobutyl-1-methylxanthin (IBMX; Sigma cat #15879). The final DMSO concentration is 1%.
# After 48 hours, the growth media was removed from the assay plate wells, and the cells were treated with 20 μL of the serially diluted compound in assay buffer for 30 minutes at 37° C. in a humidified environment in 5% carbon dioxide. Following the 30 minute incubation, 10 μL of labeled d2 cAMP and 10 μL of anti-cAMP antibody (both diluted 1:20 in cell lysis buffer; as described in the manufacturer's assay protocol) were added to each well of the assay plate. The plates were then incubated at room temperature and after 60 minutes, changes in the HTRF signal were read with an Envision 2104 multi-label plate reader using excitation of 330 nm and emissions of 615 and 665 nm. Raw data were converted to nM cAMP by interpolation from a cAMP standard curve (as described in the manufacturer's assay protocol) and the percent effect was determined relative to a saturating concentration of the full agonist GLP-17-36 (1 μM) included on each plate. EC50 determinations were made from agonist dose-response curves analyzed with a curve fitting program using a 4-parameter logistic dose response equation.
# human GLP-1R (Homo sapiens (Human), UniProt P43220, L260F), sequence (P43220 24-463 L260F): as the sequence (P43220 24-463 G168S limits assumed) above, with S145G, L237F counted along it
Structure (SMILES),EC50 (human GLP-1R [1]) [nM],Emax (human GLP-1R [1]) [%],EC50 (human GLP-1R [2]; read-out: Assay 1 EC50) [nM],Emax (human GLP-1R [2]) [%],EC50 (human GLP-1R [2]; Assay 1 EC50 (nM)) [nM]
CCn1cnnc1Cn1c(CN2CCN(c3cccc(OCc4ccc(Cl)cc4F)n3)C[C@@H]2C)nc2ccc(C(=O)O)cc21 [Example 10A-21],400,100,18,88,–
"COCCn1c(CN2CCC(c3cccc(OCc4c(F)cc(Cl)cc4F)n3)CC2)nc2ccc(C(=O)O)cc21 [Example 8A-04, 2-((4-(6-((4-chloro-2,6-difluorobenzyl)oxy)pyridin-2-yl)piperidin-1-yl)methyl)-1-(2-methoxyethyl)-1H-benzo[d]imidazole-6-carboxylic acid]",1700,88,120,79,–
"COCCn1c(CN2CCC(c3cccc(OCc4ccc(C)cc4)n3)CC2)nc2ccc(C(=O)O)cc21 [Example 8A-01, Ammonium 2-((4-(6-((4-Methylbenzyl)oxy)pyridin-2-yl)piperidin-1-yl)methyl)-1-(2-methoxyethyl)-1H-benzo[d]imidazole-6-carboxylate]",1100,90,100,99,–
"O=C(O)c1ccc2nc(CN3CCC(c4cccc(OCc5ccc(Cl)cc5F)n4)CC3)n(Cc3cnco3)c2c1 [Example 10A-01, 2-[(4-{6-[(4-Chloro-2-fluorobenzyl)oxy]pyridin-2-yl}piperidin-1-yl)methyl]-1-(1,3-oxazol-5-ylmethyl)-1H-benzimidazole-6-carboxylic acid]",43,84,3.2,77,–
"N#Cc1ccc(COc2cccc(C3CCN(Cc4nc5ccc(C(=O)O)cc5n4Cc4cnco4)CC3)n2)c(F)c1 [Example 10A-43, 2-[(4-{6-[(4-cyano-2-fluorobenzyl)oxy]pyridin-2-yl}piperidin-1-yl)methyl]-1-(1,3-oxazol-5-ylmethyl)-1H-benzimidazole-6-carboxylic acid]",48,79,4,64,–
"COC1(Cn2c(CN3CCC(c4cccc(OCc5ccc(Cl)cc5F)n4)CC3)nc3ccc(C(=O)O)cc32)CCC1 [Example 10A-26, 2-[(4-{6-[(4-chloro-2-fluorobenzyl)oxy]pyridin-2-yl}piperidin-1-yl)methyl]-1-[(1-methoxycyclobutyl)methyl]-1H-benzimidazole-6-carboxylic acid]",190,80,7,59,–
"C[C@H]1CN(c2cccc(OCc3ccc(Cl)cc3F)n2)CCN1Cc1nc2ccc(C(=O)O)nc2n1C[C@@H]1CCO1 [Example 10A-10, 2-{[(2S)-4-{6-[(4-chloro-2-fluorobenzyl)oxy]pyridin-2-yl}-2-methylpiperazin-1-yl]methyl}-3-[(2S)-oxetan-2-ylmethyl]-3H-imidazo[4,5-b]pyridine-5-carboxylic acid]",4.1,100,0.3,84,–
"Cn1cncc1Cn1c(CN2CCC(c3cccc(OCc4ccc(C#N)cc4F)n3)CC2)nc2ccc(C(=O)O)cc21 [Example 1A-16, 2-[(4-{6-[(4-cyano-2-fluorobenzyl)oxy]pyridin-2-yl}piperidin-1-yl)methyl]-1-[(1-methyl-1H-imidazol-5-yl)methyl]-1H-benzimidazole-6-carboxylic acid]",14,82,1.5,86,–
"CCCn1cnnc1Cn1c(CN2CCC(c3cccc(OCc4ccc(Cl)cc4F)n3)CC2)nc2ccc(C(=O)O)cc21 [Example 1A-18, 2-[(4-{6-[(4-chloro-2-fluorobenzyl)oxy]pyridin-2-yl}piperidin-1-yl)methyl]-1-[(4-propyl-4H-1,2,4-triazol-3-yl)methyl]-1H-benzimidazole-6-carboxylic acid]",110,94,6.4,90,–
"O=C(O)c1ccc2nc(CN3CCC(c4cccc(OCc5ccc(F)cc5F)n4)CC3)n(C[C@@H]3CCO3)c2n1 [Example 2A-20, 2-[(4-{6-[(2,4-difluorobenzyl)oxy]pyridin-2-yl}piperidin-1-yl)methyl]-3-[(2S)-oxetan-2-ylmethyl]-3H-imidazo[4,5-b]pyridine-5-carboxylic acid]",14,95,0.96,80,–

# The next lines start with the values.
EC50 (human GLP-1R [1]) [nM],Emax (human GLP-1R [1]) [%],EC50 (human GLP-1R [2]; read-out: Assay 1 EC50) [nM],Emax (human GLP-1R [2]) [%],EC50 (human GLP-1R [2]; Assay 1 EC50 (nM)) [nM],Structure (SMILES)
410,75,11,71,–,"O=C(O)c1ccc2nc(CN3CCC(c4cccc(OCc5ccc(Cl)cc5F)n4)CC3)n(CC3CCC3)c2c1 [Example 11A-16, 2-[(4-{6-[(4-chloro-2-fluorobenzyl)oxy]pyridin-2-yl}piperidin-1-yl)methyl]-1-(cyclobutylmethyl)-1H-benzimidazole-6-carboxylic acid]"
9.7,100,0.9,94,–,"O=C(O)c1ccc2nc(CN3CCN(c4cccc(OCc5ccc(Cl)cc5F)n4)CC3)n(C[C@@H]3CCO3)c2n1 [Example 10A-74, 2-[(4-{6-[(4-chloro-2-fluorobenzyl)oxy]pyridin-2-yl}piperazin-1-yl)methyl]-3-[(2S)-oxetan-2-ylmethyl]-3H-imidazo[4,5-b]pyridine-5-carboxylic acid]"
88,82,8.6,78,–,"O=C(O)c1ccc2nc(CN3CCC(c4cccc(OCc5ccc(Cl)cc5F)n4)CC3)n(C[C@@H]3CCCO3)c2c1 [Example 10A-73, 2-[(4-{6-[(4-chloro-2-fluorobenzyl)oxy]pyridin-2-yl}piperidin-1-yl)methyl]-1-[(2S)-tetrahydrofuran-2-ylmethyl]-1H-benzimidazole-6-carboxylic acid]"
35,89,1.5,74,–,"N#Cc1ccc(COc2cccc(N3CCN(Cc4nc5ccc(C(=O)O)cc5n4Cc4cnco4)CC3)n2)c(F)c1 [Example 10A-61, 2-[(4-{6-[(4-cyano-2-fluorobenzyl)oxy]pyridin-2-yl}piperazin-1-yl)methyl]-1-(1,3-oxazol-5-ylmethyl)-1H-benzimidazole-6-carboxylic acid]"
1600,82,–,71,36,"COCCn1c(CN2CCN(c3cccc(OCc4ccc(Cl)cc4F)n3)CC2C(F)(F)F)nc2ccc(C(=O)O)cc21 (single isomer, unassigned; enantiomer 2) [Example 12A-02, 2-((4-(6-((4-Chloro-2-fluorobenzyl)oxy)pyridin-2-yl)-2-(trifluoromethyl)piperazin-1-yl)methyl)-1-(2-methoxyethyl)-1H-benzo[d]imidazole-6-carboxylic acid, enantiomer 2]"
380,96,11,65,–,"O=C(O)c1ccc2nc(CN3CCC(c4cccc(OCc5ccc(Cl)cc5F)n4)CC3)n(CCn3cncn3)c2c1 [Example 11A-17, 2-[(4-{6-[(4-chloro-2-fluorobenzyl)oxy]pyridin-2-yl}piperidin-1-yl)methyl]-1-[2-(1H-1,2,4-triazol-1-yl)ethyl]-1H-benzimidazole-6-carboxylic acid]"
170,96,6.9,78,–,"COCCn1c(CN2CCN(c3cccc(OCc4ccc(Cl)cc4F)n3)C[C@@H]2C)nc2ccc(C(=O)O)cc21 [Example 12A-10, 2-{[(2S)-4-{6-[(4-chloro-2-fluorobenzyl)oxy]pyridin-2-yl}-2-methylpiperazin-1-yl]methyl]-1-(2-methoxyethyl)-1H-benzimidazole-6-carboxylic acid]"
200,81,21,82,–,"COC(C)(C)Cn1c(CN2CCC(c3cccc(OCc4ccc(Cl)cc4F)n3)CC2)nc2ccc(C(=O)O)cc21 [Example 11A-22, 2-[(4-{6-[(4-chloro-2-fluorobenzyl)oxy]pyridin-2-yl}piperidin-1-yl)methyl]-1-(2-methoxy-2-methylpropyl)-1H-benzimidazole-6-carboxylic acid]"
41,77,5,82,–,"Cn1nncc1Cn1c(CN2CCC(c3cccc(OCc4ccc(Cl)cc4F)n3)CC2)nc2ccc(C(=O)O)cc21 [Example 11A-72, 2-[(4-{6-[(4-chloro-2-fluorobenzyl)oxy]pyridin-2-yl}piperidin-1-yl)methyl]-1-[(1-methyl-1H-1,2,3-triazol-5-yl]methyl]-1H-benzimidazole-6-carboxylic acid]"
230,77,8.1,64,–,"CC1(Cn2c(CN3CCC(c4cccc(OCc5ccc(Cl)cc5F)n4)CC3)nc3ccc(C(=O)O)cc32)CCOC1 (stereo not shown) [Example 11A-14, 2-[(4-{6-[(4-chloro-2-fluorobenzyl)oxy]pyridin-2-yl}piperidin-1-yl)methyl]-1-[(3-methyltetrahydrofuran-3-yl)methyl]-1H-benzimidazole-6-carboxylic acid]"
20,87,2,84,–,"CCn1nncc1Cn1c(CN2CCC(c3cccc(OCc4ccc(C#N)cc4F)n3)CC2)nc2ccc(C(=O)O)cc21 [Example 10A-69, 2-[(4-{6-[(4-cyano-2-fluorobenzyl)oxy]pyridin-2-yl}piperidin-1-yl)methyl]-1-[(1-ethyl-1H-1,2,3-triazol-5-yl)methyl]-1H-benzimidazole-6-carboxylic acid]"
10,120,0.96,100,–,"N#Cc1ccc(COc2cccc(N3CCN(Cc4nc5ccc(C(=O)O)nc5n4C[C@@H]4CCO4)CC3)n2)c(F)c1 [Example 10A-77, 2-[(4-{6-[(4-cyano-2-fluorobenzyl)oxy]pyridin-2-yl}piperazin-1-yl)methyl]-3-[(2S)-oxetan-2-ylmethyl]-3H-imidazo[4,5-b]pyridine-5-carboxylic acid]"
